Assay results from patent US8962842B2, “2-pyridone antimicrobial compositions” (priority 2010, dated 2015).
Like-named read-outs stand apart in the source and are kept apart here.

Experiments:
[1] = system: Escherichia coli (6 strains); test: MIC range, broader panel of Quotient Bioresearch strains (Table 4); assay type: cell-based
[2] = system: Klebsiella pneumonia (4 strains); test: as above; assay type: cell-based; details: Klebsiella pneumoniae
[3] = system: Pseudomonas aeruginosa (12 strains); test: as above; assay type: cell-based
[4] = system: Burkholderia cepacia (5 strains); test: as above; assay type: cell-based
[5] = system: Haemophilus influenza (5 strains); test: as above; assay type: cell-based, Haemophilus influenzae
[6] = system: Acinetobacter baumannii (12 strains); test: as above; assay type: cell-based
[7] = system: Acinetobacter baumannii, quinolone-resistant strains (Quotient Bioresearch catalogue); test: MIC against pathogens resistant against quinolones (Table 5); assay type: cell-based; details: Acinetobacter baumannii, GN54
[8] = biological target: bacterial gyrase (Escherichia coli, UniProt P0AES4+P0AES6); test: Inhibition of topoisomerases activity in vitro, Topogen protocol TG1003 (Table 7); assay type: biochemical
[9] = biological target: bacterial topoisomerase IV (Escherichia coli, UniProt P0AFI2+P20083); test: Inhibition of topoisomerases activity in vitro, Topogen protocol TG1007 (Table 7); assay type: biochemical
[10] = Metabolic stability in liver microsomes +/- S9 fraction (Table 8); assay type: in vitro ADME; details: 1 μM
Protocol: Metabolic stability of a select number of examples was tested in liver microsomes+/−addition of S9 fraction as described by Kuhnz, W. and Gieschen, H. (1998), Drug Metab. Dispos., 1120-1127. Test concentration was 1 μM and HPLC/MS-MS was used for detection.

[11] = system: Bacterial strains injected into thigh muscles; assay type: in vivo, mice
[12] = physchem; assay type: physicochemical; details: thermodynamic from solid
Protocol: The solutions were incubated at room temperature for 24 hours before quantification by HPLC detection. Aqueous solubility was evaluated in simulated gastric fluid (SGF), simulated intestinal fluid (SIF) and phosphate buffer saline (PBS) pH 7.4. Aqueous solubility is expressed in Table 11 as mean solubility in μM.

[13] = system: Staphylococcus aureus (16 strains); test: MIC range, broader panel of Quotient Bioresearch strains (Table 3)
[14] = system: Enterococcus faecalis (5 strains); test: as above
[15] = system: Enterococcus faecium (3 strains); test: as above
[16] = system: Streptococcus pneumonia (5 strains); test: as above; details: Streptococcus pneumoniae
[17] = system: Streptococcus pyogenes (4 strains); test: as above
[18] = system: Group C Streptococcus (4 strains); test: as above
[19] = biological target: T1, human topoisomerase I (Homo sapiens, UniProt P11387); test: Inhibition of topoisomerases activity in vitro, Topogen protocol TG1015 (Table 7); assay type: biochemical; details: read-out: IC50 hTopo I Assay
T1 construct: purchased Topogen Inc., Port Orange, USA TG1015
T1 sequence (P11387 1-765): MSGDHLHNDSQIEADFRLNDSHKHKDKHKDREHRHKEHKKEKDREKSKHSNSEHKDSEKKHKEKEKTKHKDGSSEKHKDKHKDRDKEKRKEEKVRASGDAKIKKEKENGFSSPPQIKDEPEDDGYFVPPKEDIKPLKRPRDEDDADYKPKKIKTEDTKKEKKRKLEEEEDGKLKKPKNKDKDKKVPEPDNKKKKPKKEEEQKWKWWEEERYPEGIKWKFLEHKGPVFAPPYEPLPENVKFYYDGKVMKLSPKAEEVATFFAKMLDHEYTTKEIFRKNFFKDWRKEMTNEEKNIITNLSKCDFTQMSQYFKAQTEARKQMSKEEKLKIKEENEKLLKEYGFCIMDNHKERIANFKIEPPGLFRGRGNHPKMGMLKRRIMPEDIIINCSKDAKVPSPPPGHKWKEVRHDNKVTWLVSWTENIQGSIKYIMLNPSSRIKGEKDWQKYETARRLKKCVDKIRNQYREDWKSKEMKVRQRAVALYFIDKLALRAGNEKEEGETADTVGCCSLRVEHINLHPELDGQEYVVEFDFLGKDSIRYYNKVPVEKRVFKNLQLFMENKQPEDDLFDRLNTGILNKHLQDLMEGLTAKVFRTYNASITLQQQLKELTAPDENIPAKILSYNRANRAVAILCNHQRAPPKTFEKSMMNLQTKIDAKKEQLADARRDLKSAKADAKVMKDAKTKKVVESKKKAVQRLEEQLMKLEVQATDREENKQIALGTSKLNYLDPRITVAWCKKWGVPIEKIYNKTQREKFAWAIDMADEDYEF

bacterial topoisomerase IV, sequence (P20083 whole entry): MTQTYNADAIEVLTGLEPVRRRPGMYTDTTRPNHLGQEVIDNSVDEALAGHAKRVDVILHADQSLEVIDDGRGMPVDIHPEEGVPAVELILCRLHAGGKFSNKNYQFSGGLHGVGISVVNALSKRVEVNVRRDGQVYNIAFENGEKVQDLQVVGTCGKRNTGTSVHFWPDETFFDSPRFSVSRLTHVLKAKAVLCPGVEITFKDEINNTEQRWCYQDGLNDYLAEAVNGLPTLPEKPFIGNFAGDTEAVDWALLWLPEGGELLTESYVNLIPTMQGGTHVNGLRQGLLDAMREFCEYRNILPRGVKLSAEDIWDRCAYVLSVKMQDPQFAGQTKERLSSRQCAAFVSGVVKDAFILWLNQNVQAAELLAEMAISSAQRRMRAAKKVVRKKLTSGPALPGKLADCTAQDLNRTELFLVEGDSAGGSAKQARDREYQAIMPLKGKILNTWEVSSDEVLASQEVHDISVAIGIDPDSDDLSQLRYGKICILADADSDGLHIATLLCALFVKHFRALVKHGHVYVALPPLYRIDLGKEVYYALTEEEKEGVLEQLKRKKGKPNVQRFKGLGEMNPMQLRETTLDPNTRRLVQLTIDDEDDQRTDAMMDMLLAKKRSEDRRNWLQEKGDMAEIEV
bacterial topoisomerase IV, sequence (P0AFI2 whole entry): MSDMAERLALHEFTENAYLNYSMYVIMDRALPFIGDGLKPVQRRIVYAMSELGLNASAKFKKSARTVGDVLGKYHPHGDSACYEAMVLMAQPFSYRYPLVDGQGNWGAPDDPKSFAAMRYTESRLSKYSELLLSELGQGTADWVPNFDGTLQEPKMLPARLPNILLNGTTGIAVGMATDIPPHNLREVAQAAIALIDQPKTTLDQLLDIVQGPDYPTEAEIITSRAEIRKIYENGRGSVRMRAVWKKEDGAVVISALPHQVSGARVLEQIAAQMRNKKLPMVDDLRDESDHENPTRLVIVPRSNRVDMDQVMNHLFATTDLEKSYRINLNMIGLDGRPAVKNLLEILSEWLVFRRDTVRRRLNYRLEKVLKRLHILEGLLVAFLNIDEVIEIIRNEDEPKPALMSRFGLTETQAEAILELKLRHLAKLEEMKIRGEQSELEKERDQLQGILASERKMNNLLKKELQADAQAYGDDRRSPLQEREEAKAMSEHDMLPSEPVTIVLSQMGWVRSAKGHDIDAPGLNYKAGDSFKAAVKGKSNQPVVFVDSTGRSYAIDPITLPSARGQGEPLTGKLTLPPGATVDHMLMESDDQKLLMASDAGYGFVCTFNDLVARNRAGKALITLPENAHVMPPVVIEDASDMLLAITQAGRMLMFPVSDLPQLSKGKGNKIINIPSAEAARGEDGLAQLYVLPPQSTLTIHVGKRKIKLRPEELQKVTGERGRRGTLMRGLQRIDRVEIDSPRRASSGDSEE
bacterial gyrase, sequence (P0AES4 whole entry, one chain of several): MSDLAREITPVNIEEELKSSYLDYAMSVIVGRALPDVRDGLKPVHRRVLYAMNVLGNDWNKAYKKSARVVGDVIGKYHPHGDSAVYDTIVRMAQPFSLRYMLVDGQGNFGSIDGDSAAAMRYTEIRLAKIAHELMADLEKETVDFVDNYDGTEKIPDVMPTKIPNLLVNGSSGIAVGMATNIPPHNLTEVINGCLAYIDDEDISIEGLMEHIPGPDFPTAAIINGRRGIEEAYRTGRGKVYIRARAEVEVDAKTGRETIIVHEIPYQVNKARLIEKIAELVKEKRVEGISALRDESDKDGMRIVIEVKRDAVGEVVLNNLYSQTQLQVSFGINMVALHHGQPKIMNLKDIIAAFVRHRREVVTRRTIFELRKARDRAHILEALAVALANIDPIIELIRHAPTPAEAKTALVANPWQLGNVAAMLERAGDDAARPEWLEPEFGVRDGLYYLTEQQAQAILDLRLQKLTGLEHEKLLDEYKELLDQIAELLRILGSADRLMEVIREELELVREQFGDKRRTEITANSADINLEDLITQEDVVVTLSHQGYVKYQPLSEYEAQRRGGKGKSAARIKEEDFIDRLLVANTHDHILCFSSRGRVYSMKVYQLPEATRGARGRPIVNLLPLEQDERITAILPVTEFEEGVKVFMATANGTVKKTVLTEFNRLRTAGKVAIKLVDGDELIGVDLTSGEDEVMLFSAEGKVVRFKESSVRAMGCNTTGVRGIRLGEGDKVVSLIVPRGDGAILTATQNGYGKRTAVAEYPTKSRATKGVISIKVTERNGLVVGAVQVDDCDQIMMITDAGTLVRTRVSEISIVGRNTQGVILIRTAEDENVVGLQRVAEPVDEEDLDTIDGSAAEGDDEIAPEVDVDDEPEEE

With Cc1c(-c2ccc(N)nc2)ccn2c(=O)c(C(=O)[O-])cc(C3CC3)c12.[K+] [Example 21 K salt, potassium 8-(6-amino-pyridin-3-yl)-1-cyclopropyl-9-methyl-4-oxo-4H-quinolizine-3-carboxylate] as the molecule, how does the MIC ([1]; read-out: MIC Range High, Escherichia coli (6 strains)) read?
Its MIC is 32 µg/mL.

And the MIC ([1]; read-out: MIC Range Low, Escherichia coli (6 strains))?
Its MIC is ≤ 0.015 µg/mL.

What about the MIC50 ([1]; read-out: MIC Range Median, Escherichia coli (6 strains)) of the same molecule?
Its MIC50 is 16 µg/mL.

What about the MIC ([2]; read-out: MIC Range High, Klebsiella pneumonia (4 strains)) of the same molecule?
The MIC was 32 µg/mL.

And the MIC ([2]; read-out: MIC Range Low, Klebsiella pneumonia (4 strains))?
The MIC was 0.06 µg/mL.

What about the MIC50 ([2]; read-out: MIC Range Median, Klebsiella pneumonia (4 strains)) of the same molecule?
The MIC50 was 9 µg/mL.

And the MIC ([3]; read-out: MIC Range High, Pseudomonas aeruginosa (12 strains))?
The MIC was 32 µg/mL.

What about the MIC ([3]; read-out: MIC Range Low, Pseudomonas aeruginosa (12 strains)) of the same molecule?
Its MIC is 0.5 µg/mL.

What about the MIC50 ([3]; read-out: MIC Range Median, Pseudomonas aeruginosa (12 strains)) of the same molecule?
Its MIC50 is 8 µg/mL.

And the MIC ([4]; read-out: MIC Range High, Burkholderia cepacia (5 strains))?
Its MIC is 0.25 µg/mL.

What about the MIC ([4]; read-out: MIC Range Low, Burkholderia cepacia (5 strains)) of the same molecule?
The MIC was 0.12 µg/mL.

What about the MIC50 ([4]; read-out: MIC Range Median, Burkholderia cepacia (5 strains)) of the same molecule?
The MIC50 was 0.25 µg/mL.

And the MIC50 ([5]; 16 h, Median of the strain panel)?
Its MIC50 is ≤ 0.015 µg/mL.

What about the MIC ([5]; High of the strain panel, read-out: MIC Range High, Haemophilus influenza (5 strains)) of the same molecule?
The MIC was ≤ 0.015 µg/mL.

And the MIC ([5]; Low of the strain panel, read-out: MIC Range Low, Haemophilus influenza (5 strains))?
Its MIC is ≤ 0.015 µg/mL.

What about the MIC ([6]; read-out: MIC Range High, Acinetobacter baumannii (12 strains)) of the same molecule?
Its MIC is 16 µg/mL.

And the MIC ([6]; read-out: MIC Range Low, Acinetobacter baumannii (12 strains))?
Its MIC is 0.03 µg/mL.

What about the MIC50 ([6]; read-out: MIC Range Median, Acinetobacter baumannii (12 strains)) of the same molecule?
Its MIC50 is 4 µg/mL.

And the MIC [7]?
The MIC was 4 µg/mL.

What about the IC50 [8] of the same molecule?
The IC50 was ≤ 1490 nM.

What about the IC50 [9] of the same molecule?
Its IC50 is ≤ 2330 nM.

What about the “Mean Parent Remaining” value ([10]; Liver microsomes + S9, human) of the same molecule?
Its value is 93%.

And the “Mean Parent Remaining” value ([10]; Liver microsomes + S9, mouse)?
The value was 97%.

What about the “Mean Parent Remaining” value ([10]; Liver microsomes, human) of the same molecule?
Its value is 85%.

What about the “Mean Parent Remaining” value ([10]; Liver microsomes, mouse) of the same molecule?
The value was 87%.

And the “Log reduction (LgR) from vehicle control (CFU/g)” value (shortened to “Log reduction (LgR)”) ([11]; E. coli ATCC 25922, mouse thigh, 30 mg/kg TDS p.o.)?
The value was 3.13.

And the “Log reduction (LgR)” value ([11]; MRSA ATCC 43300, mouse thigh, 30 mg/kg TDS p.o.)?
Its value is 4.93.

What about the solubility at 24 h ([12]; fassgf or other biorelevant) of the same molecule?
The solubility at 24 h was 200 µM.

What about the solubility at 24 h ([12]; pH 7.4, aqueous buffer) of the same molecule?
Its solubility at 24 h is 200 µM.

What about the solubility at 24 h ([12]; simulated gastric fluid) of the same molecule?
Its solubility at 24 h is 200 µM.

What about the MIC ([13]; read-out: MIC Range Low, Staphylococcus aureus (16 strains)) of the same molecule?
Its MIC is ≤ 0.015 µg/mL.

And the MIC50 ([13]; read-out: MIC Range Median, Staphylococcus aureus (16 strains))?
The MIC50 was 0.25 µg/mL.

What about the MIC ([14]; read-out: MIC Range High, Enterococcus faecalis (5 strains)) of the same molecule?
Its MIC is 2 µg/mL.

And the MIC ([14]; read-out: MIC Range Low, Enterococcus faecalis (5 strains))?
The MIC was 0.03 µg/mL.

What about the MIC50 ([14]; read-out: MIC Range Median, Enterococcus faecalis (5 strains)) of the same molecule?
Its MIC50 is 0.12 µg/mL.

And the MIC ([15]; read-out: MIC Range Low, Enterococcus faecium (3 strains))?
The MIC was 0.25 µg/mL.

What about the MIC50 ([15]; read-out: MIC Range Median, Enterococcus faecium (3 strains)) of the same molecule?
Its MIC50 is 1 µg/mL.

What about the MIC ([16]; read-out: MIC Range Low, Streptococcus pneumonia (5 strains)) of the same molecule?
The MIC was 0.06 µg/mL.

What about the MIC50 ([16]; read-out: MIC Range Median, Streptococcus pneumonia (5 strains)) of the same molecule?
The MIC50 was 0.06 µg/mL.

What about the MIC ([17]; read-out: MIC Range High, Streptococcus pyogenes (4 strains)) of the same molecule?
The MIC was 0.12 µg/mL.

What about the MIC ([17]; read-out: MIC Range Low, Streptococcus pyogenes (4 strains)) of the same molecule?
Its MIC is 0.06 µg/mL.

What about the MIC50 ([17]; read-out: MIC Range Median, Streptococcus pyogenes (4 strains)) of the same molecule?
The MIC50 was 0.06 µg/mL.

And the MIC ([18]; read-out: MIC Range High, Group C Streptococcus (4 strains))?
The MIC was 0.06 µg/mL.

What about the MIC ([18]; read-out: MIC Range Low, Group C Streptococcus (4 strains)) of the same molecule?
Its MIC is 0.03 µg/mL.

What about the MIC50 ([18]; read-out: MIC Range Median, Group C Streptococcus (4 strains)) of the same molecule?
The MIC50 was 0.03 µg/mL.

For O=C(O)c1cn(C2CC2)c2cc(N3CCNCC3)c(F)cc2c1=O [Ciprofloxacin, reference compound], which IC50 [19] is on record?
Its IC50 is > 150000 nM.

What about the “Log reduction (LgR)” value ([11]; MRSA ATCC 43300, mouse thigh, 20 mg/kg i.v. TDS) of the same molecule?
The value was 2.36.
